Entries after “also recorded” stand apart in the source; their conditions may differ.
Experiments:
[1] = test system: Candida albicans ATCC 752; experiment: Antifungal activity in vitro by flow cytometry, Candida albicans ATCC 752; assay type: cell-based; settings: ATCC752, 24 h at 37° C., read-out: CF50 Candida albicans ATCC 752
Description: (§1) The antifungal activity of the polyene macrolide derivate of the present invention was determined by flow cytometry method earlier described (Pinto et al., J. Medical Microbiology, 2009; 58, 1454-1462; Pina-Vaz and Rodriguez, Methods Mol. Biol. 2010; 638:281-289). For the test two strains of Candida albicans (ATCC 10231 and 752) and Candida kruzei were used. A cellular suspension of 1×10^6 UFC/mL was used, which has sown in 96-well plates. […] As controls were used: untreated yeasts (control of living cells), yeasts exposed to UV radiation (arrest, inhibition of proliferation), and yeasts exposed at temperature of 100° C. (dead yeasts). Cells were collected by centrifugation at 10,000×g for 10 min, they were washed once in phosphate buffer. […] of propidium iodide 0.1 mg/mL were added to the cell suspension. It was incubated during 30 minutes at room temperature and protected from light. Finally, the samples were analyzed by flow cytometry (Becton-Dickinson Facsc Calibur, laser argon 480 nm). The intrinsic parameters and fluorescence in the FL2 channel (yellow/orange fluorescence) for FUN and channel FL3 (red fluorescence, filter 630 nm) for propidium iodide were acquired and registered on a logarithmic scale for a minimum of 7500 events per sample. For data analysis, the quadrants were adjusted in a plot of data lines of fluorescence intensity of samples. […] These quadrants were used to quantify the percentile of cells showing altered fluorescence compared to drug-free controls.

[2] = Unit channel studies in chicken egg lecithin bilayers with cholesterol; settings: for Opening probability, channel type I / Opening probability, channel type II / Opening probability, channel type III / Opening probability, channel type IV / Opening probability, channel type V / Opening probability, channel type VI: 200 μM compound, 30 mol % cholesterol, 27° C.
Description: The activity is determined by the presence of the different channels formed by polyenes in the lipid bilayer (Cotero, et al., supra; Venegas, et al., supra). […] These values were determined by the technique of unit channel delineated above.
Unit channel studies were performed according to procedures described earlier (Cotero, et al., supra, Venegas, et al., supra). Required liposomal suspensions were prepared using lecithin with cholesterol or ergosterol. These suspensions were placed in an ultrasonic bath for 15 minutes to produce unilamellar vesicles. Subsequently, the suspension was placed in a 100 μl eppendorf and a lipid bilayer was formed on the tip of a micro-electrode. The unit channels of amphotericin and of the invented compounds were incorporated to this bilayer. The unit channel current of the various compounds was recorded with an electrometer, and then these records were analyzed by determining the activity of the compounds and the characteristics of the channels formed.
The activity is determined by the presence of the various channels formed by polyenes in the lipid bilayer (Cotero, et al., supra, Venegas, et al., supra). […] This conductance is the effect of all the channels present and was determined by the unit channel technique earlier described.

[3] = test system: Candida albicans ATCC 10231; experiment: Antifungal activity in vitro by flow cytometry, Candida albicans ATCC 10231; assay type: cell-based; settings: ATCC10231, 24 h at 37° C., read-out: CF50 Candida albicans ATCC 10231
Description: as §1

human erythrocytes = experiment: Hemolytic assay on human erythrocytes; assay type: cell-based; settings: 1 hour
Description: The hemotoxicity of the polyene macrolide derivative of the present invention was determined by measuring the toxicity to human erythrocytes (values HE50) using a method established by Cybulska, et al. (Cybulska, B., Borowski, E. and Gary-Bobo, M. Relationship between ionophoric and hemolytic activities of perimycin A and vacidin A, two polyene macrolide antifungal antibiotics. Biochem Pharmacol. 1989; 38(11): 1755-1762). For determining the haematoxicity 2 mL blood were obtained and placed in a tube with EDTA. The number of erythrocytes was counted in a Neubauer chamber, and 1×10^7 cells/mL were placed in test tubes. The erythrocytes were resuspended in 450 μL of KCl 150 mM+Tris 3 mM buffer. The erythrocytes were treated with concentrations of 0.01, 0.1, 1, 10 y 100 μM and incubated in a water bath for 1 hour. They were then centrifuged at 1500 rpm for 15 seconds; 150 μL were taken from the supernatant and placed in 96-well plates; the optical density of each group was measured using a plate reader at a wavelength of 550 nm. We included one tube with the drug solvent (DMSO 1%) as internal control. We also included one tube only with erythrocytes and 500 μl of buffer KCl 150 mM+Tris 3 mM, which we consider as a negative control group and a tube with 500 μl of red cells and 35 mM NaCl (positive control).

Candida kruzei = experiment: Antifungal activity in vitro by flow cytometry, Candida kruzei; assay type: cell-based; settings: 24 h at 37° C., read-out: CF50 Candida kruzei
Description: as §1

[4] = test system: human renal cells 293Q (ATCC CLR-1573); experiment: MTT cytotoxicity on human renal cells 293Q; settings: human renal cells 293Q, 24 h
Description: For cytotoxicity studies human kidney cells (ATCC No. CRL-1573) were used. The cells were cultured with Minimum Essential Medium (MEM) (GIBCO BRL), supplemented with 10% fetal bovine serum (FBS) (GIBCO BRL), 2 mM 1-glutamine (GIBCO BRL), 1.5 gL Na2HCO3 (Sigma Chemical Co), 0.1 mM nonessential amino acids (Sigma Chemical Co), and 1 mM sodium pyruvate (In vitro, S.A.). The technique of bromide of 3(4,5-dimethylthiazol-2-yl)-2,5-diphenyl tetrazolium (MTT) (Sigma Chemical Co) was applied; a technique which is based on the conversion of dye to an insoluble precipitate called formazan. This test is used as an indicator of mitochondrial function in living cells that measures the metabolic capacity in cells and serves as an indicator of cytotoxicity. […] (Mosman […], Immunol Methods, 65: 55-63). The cytoxicity test consisted of planting 10,000 cells per well in 96-well plates (Corning Incorporated Costar) in MEM and incubate them (Nuaire us autoflow CO2 water-jacketed incubator) during 24 h at 37° C. and 5% CO2. […] After incubation, cells were treated and incubated anew for 24 h. After this time the medium was aspirated carefully and replaced with 200 μL of fresh medium, and 50 μL of MTT was added for a total volume of 250 μl. They were then incubated for 4 hours in the above conditions. After that time the medium with MTT was carefully removed and 200 μL of DMSO and 25 μL of Sorensen buffer (0.1 M glycine+0.1 M NaCl at pH 10.5) were added to each well. The plate was then mixed until the formazan crystals dissolved, and it was finally read in a plate reader (Microplate Limaning System Ultramark, Biorad) at a wavelength of 550 nm.
For the tests, we used human renal ephythelial cells (293Q) (ATCC Catalog No. CRL-1573). The cells were cultured with Minimum Essential Medium (MEM) (GIBCO BRL) supplemented with 10% fetal bovine serum (FBS) (GIBCO BRL), 2 mM L-glutamine (GIBCO BRL), 1.5 g/L Na2HCO3 (Sigma Chemical Co), 0.1 mM nonessential amino acids (Sigma Chemical Co), and 1 mM sodium pyruvate (In vitro, S.A.). For cytoxicity tests, we applied the technique of bromide 3(4,5-dimethylthiazol-2-yl)-2,5-diphenyl tetrazolium (MTT) (Sigma Chemical Co), which is based on the conversion of the dye to an insoluble precipitate called formazan. This test is used as an indicator of mitochondrial function in living cells which measures the metabolic capacity in cells and serves as an indicator of cytotoxicity. (Wang, H. Z., Chang, C. H., Lin, C. P., Tsai, M. C). Using MTT viability assay to test the cytotoxicity of antibiotics and steroid to cultured porcine corneal endothelial cells. J. Ocul. Pharmacol. Ther. 1996; 12: 35-43). For the essay 10,000 cells were seeded per well in 96-well plates (Corning Incorporated Costar) in the medium already indicated and incubated for 24 h at 37° C. and 5% CO2. […] After incubation, cells were treated and incubated again for 24 h. The medium was carefully aspirated and replaced with 200 μl fresh medium, adding 50 μl MTT solution for a total volume of 250 μl. They were then incubated for 4 hours in the above conditions. The medium was carefully removed with MTT and 200 μl DMSO and 25 μl Sorense buffer (0.1 M glycine+0.1 M NaCl at pH 10.5) was added to each well. Then the plate was mixed until the formazan crystals dissolved; it was finally read in a reader plate (Microplate Limaning System Ultramark, Biorad) at a wavelength of 550 nm.

[5] = test system: Saccharomyces cerevisae FY833(SC) cells; experiment: Viability of Saccharomyces cerevisae FY833 (SC) cells at various concentrations; assay type: cell-based; settings: FIG. 1, various concentrations; listed as amide 1
Description: All derivatives were tested for antibiotic activity in yeast cultures of S. cerevisiae.

Row | Compound | IC50 [1] | Opening probability, channel type I [2] | Opening probability, channel type II [2] | Opening probability, channel type III [2] | Opening probability, channel type IV [2] | Opening probability, channel type V [2] | Opening probability, channel type VI [2] | IC50 [3] | HE50 (Hemolysis 50) (human erythrocytes) | IC50 (Candida kruzei) | DT50 CitE50 [4] | activity of transmembranal channels in the cholesterol membrane ([2]; in words, compared to AmB) | inhibitory capacity / potency on SC cells compared to AmB [5]
1 | CC(NC(=O)[C@@H]1C(O)C[C@@]2(O)C[C@@H](O)C[C@@H](O)[C@H](O)CC[C@@H](O)C[C@@H](O)CC(=O)OC(C)C(C)[C@H](O)C(C)/C=C/C=C/C=C/C=C/C=C/C=C/C=C/[C@H](OC3OC(C)C(O)C(N)C3O)CC1O2)c1ccccc1 (stereo partly drawn) [A-4, N—(S)-α-phenylethylamide of AmB] | > 100 µM | 7% | 3% | 1% | <1% | <1% | <1% | > 50 µM | 46 µM | > 100 µM | 80 µM | – | –
2 | COC(=O)C(Cc1c[nH]c2ccccc12)NC(=O)[C@@H]1C(O)C[C@@]2(O)C[C@@H](O)C[C@@H](O)[C@H](O)CC[C@@H](O)C[C@@H](O)CC(=O)OC(C)C(C)[C@H](O)C(C)/C=C/C=C/C=C/C=C/C=C/C=C/C=C/[C@H](OC3OC(C)C(O)C(N)C3O)CC1O2 (stereo partly drawn) [A-6, N-(L)-tryptophanamide of AmB] | > 100 µM | 23% | 2% | <1% | <1% | <1% | N.O. | > 50 µM | 58 µM | > 100 µM | 120 µM | – | –
3 | CC1OC(O[C@H]2/C=C/C=C/C=C/C=C/C=C/C=C/C=C/C(C)[C@@H](O)C(C)C(C)OC(=O)C[C@H](O)C[C@H](O)CC[C@@H](O)[C@H](O)C[C@H](O)C[C@]3(O)CC(O)[C@@H](C(=O)NCc4ccccc4)C(C2)O3)C(O)C(N)C1O (stereo partly drawn) [A-1, N-benzylamide of AmB] | > 100 µM | 2% | 1% | <1% | <1% | <1% | <1% | > 100 µM | 52 µM | > 100 µM | 100 µM | low activity of transmembranal channels | the most similar; also recorded: the highest power of the derivatives
4 | CC1OC(O[C@H]2/C=C/C=C/C=C/C=C/C=C/C=C/C=C/C(C)[C@@H](O)C(C)C(C)OC(=O)C[C@H](O)C[C@H](O)CC[C@@H](O)[C@H](O)C[C@H](O)C[C@]3(O)CC(O)[C@@H](C(=O)NC4CCCCC4)C(C2)O3)C(O)C(N)C1O (stereo partly drawn) [A-2, N-cycloheximide of AmB] | > 100 µM | 5% | <1% | <1% | <1% | <1% | <1% | > 50 µM | 45 µM | > 100 µM | 120 µM | – | –
5 | CC1OC(O[C@H]2/C=C/C=C/C=C/C=C/C=C/C=C/C=C/C(C)[C@@H](O)C(C)C(C)OC(=O)C[C@H](O)C[C@H](O)CC[C@@H](O)[C@H](O)C[C@H](O)C[C@]3(O)CC(O)[C@@H](C(=O)N[C@H](C)c4ccccc4)C(C2)O3)C(O)C(N)C1O (stereo partly drawn) [A-5, N—(R)-α-phenylethylamide of AmB] | > 100 µM | 10% | 2% | <1% | <1% | <1% | <1% | > 50 µM | 42 µM | > 100 µM | 100 µM | – | –
6 | CC1/C=C/C=C/C=C/C=C/C=C/C=C/C=C/[C@H](OC2O[C@H](O)[C@@H](O)[C@H](N)[C@@H]2O)C[C@@H]2O[C@](O)(C[C@@H](O)C[C@@H](O)[C@H](O)CC[C@@H](O)C[C@@H](O)CC(=O)O[C@@H](C)[C@H](C)[C@@H]1O)C[C@H](O)[C@H]2C(=O)NCCc1c[nH]cn1 (stereo partly drawn) [A-8, N-histaminamide of AmB] | > 100 µM | – | – | – | – | – | – | > 50 µM | – | > 100 µM | – | – | –
